Laboratory results as given in patent publication US6358885B1, “Substituted phenylheterocyclic herbicides” (Mississippi State University, priority 1992, dated 2002).

Assays:
cotton = assay: Test B preemergence/postemergence greenhouse plant response rating 0 to 10; format: in vivo, Gossypium hirsutum; settings: 0 to 10 scale
How it was run: (§1)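 Test chemicals were sprayed onto freshly planted seed and, concurrently, onto young plants between the one and four leaf stage. After a twelve- to sixteen-day greenhouse period, each species was visually compared with untreated controls.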

wild buckwheat = assay: Test C preemergence/postemergence greenhouse plant response rating 0 to 100; format: in vivo, Polygonum convolvulus; settings: POSTEMERGENCE; for Plant response rating, Wild buckwheat: 0 to 100 scale
Source text: (§2) The compounds evaluated in this test were formulated in a non-phytoxic solvent and applied to the soil surface before plant seedlings emerged (preemergence application), to water that covered the soil surface (flood application), and to plants that were in the one-to-four leaf stage (postemergence application). A sandy loam soil was used for the preemergence and postemergence tests, while a silt loam soil was used in the flood test. Water depth was approximately 2.5 cm for the flood test and was maintained at this level for the duration of the test. Plant species in the preemergence and postemergence tests consisted of barley (Hordeum vulgare), bedstraw (Galium aparine), blackgrass (Alopecurus myosuroides), chickweed (Stellaria media), corn (Zea mays), cotton (Gossypium hirsutum), crabgrass (Digitaria sanguinalis), downy brome (Bromus tectorum), giant foxtail (Setaria faberii), lambsquarters (Chenopodium album), morningglory (Ipomoea hederacea), pigweed ([…]), rape (Brassica napus), ryegrass (Lolium multiflorum), sorghum (Sorghum bicolor), soybean (Glycine max), speedwell (Veronica persica), sugar beet (Beta vulgaris), velvetleaf (Abutilon theophrasti), wheat (Triticum aestivum), wild buckwheat (Polygonum convolvulus), and wild oat (Avena fatua). All plant species were planted one day before application of the compound for the preemergence portion-of this test. Plantings of these species were adjusted to produce plants of appropriate size for the post-emergence portion of the test. […] All plant species were grown using normal greenhouse practices. Visual evaluations of injury expressed on treated plants, when compared to untreated controls, were recorded approximately fourteen to twenty one days after application of the test compound. […] A dash (-) response means no test result.

barley [1] = assay: Test B preemergence/postemergence greenhouse plant response rating 0 to 10; format: in vivo, Hordeum vulgare; settings: 0 to 10 scale
How it was run: as §1

duck salad = assay: Test C flood test plant response rating 0 to 100; format: in vivo, Heteranthera limosa; settings: for Plant response rating (0 to 100), Duck salad: under POSTEMERGENCE head (flood test species); for Plant response rating Duck salad: flood test species listed under POSTEMERGENCE, 0 to 100 scale
Source text: as §2

blackgrass [2] = assay: Test B preemergence/postemergence greenhouse plant response rating 0 to 10; format: in vivo, Alopecurus myosuroides; settings: 0 to 10 scale
How it was run: as §1

pigweed = assay: Test C preemergence/postemergence greenhouse plant response rating 0 to 100; format: in vivo, Amaranthusretroflexus; settings: POSTEMERGENCE; for Plant response rating Pigweed: 0 to 100 scale
Source text: as §2

rape = assay: Test B preemergence/postemergence greenhouse plant response rating 0 to 10; format: in vivo, Brassica napus; settings: 0 to 10 scale
How it was run: as §1

bedstraw [3] = assay: Test C preemergence/postemergence greenhouse plant response rating 0 to 100; format: in vivo, Galium aparine; settings: POSTEMERGENCE; for Plant response rating, Bedstraw: 0 to 100 scale
Source text: as §2

blackgrass [4] = assay: as above; format: in vivo, Alopecurus myosuroides; settings: POSTEMERGENCE; for Plant response rating, Blackgrass: 0 to 100 scale
Source text: as §2

sorghum [5] = assay: as above; format: in vivo, Sorghum bicolor; settings: POSTEMERGENCE; for Plant response rating, Sorghum: 0 to 100 scale
Source text: as §2

rice = assay: Test B preemergence/postemergence greenhouse plant response rating 0 to 10; format: in vivo, Oryza sativa; settings: 0 to 10 scale
How it was run: as §1

barley [6] = assay: Test C preemergence/postemergence greenhouse plant response rating 0 to 100; format: in vivo, Hordeum vulgare; settings: POSTEMERGENCE; for Plant response rating Barley Igri: 0 to 100 scale
Source text: as §2

wheat = assay: Test B preemergence/postemergence greenhouse plant response rating 0 to 10; format: in vivo, Triticum aestivum; settings: 0 to 10 scale
How it was run: as §1

bedstraw [7] = assay: as above; format: in vivo, Galium aparine; settings: 0 to 10 scale
How it was run: as §1

ryegrass = assay: Test C preemergence/postemergence greenhouse plant response rating 0 to 100; format: in vivo, Lolium multiflorum; settings: POSTEMERGENCE; for Plant response rating Ryegrass: 0 to 100 scale
Source text: as §2

sorghum [8] = assay: Test B preemergence/postemergence greenhouse plant response rating 0 to 10; format: in vivo, Sorghum bicolor; settings: 0 to 10 scale
How it was run: as §1

cheatgrass = assay: as above; format: in vivo, Bromus secalinus; settings: 0 to 10 scale
How it was run: as §1

sugar beet = assay: Test C preemergence/postemergence greenhouse plant response rating 0 to 100; format: in vivo, Beta vulgaris; settings: POSTEMERGENCE; for Plant response rating, Sugar beet: 0 to 100 scale
Source text: as §2

With CCOC(=O)COc1cc(-c2nn3c(c2Cl)CCCC3)c(F)cc1Cl [Compound 42] the “Plant response rating, Cotton” value (cotton; POSTEMERGENCE, Rate 50 g/ha) was 10, the “Plant response rating, Cotton” value (cotton; POSTEMERGENCE, Rate 200 g/ha) was 10 and the “Plant response rating, Cotton” value (cotton; PREEMERGENCE, Rate 50 g/ha) was 0. For the same compound, the “Plant response rating, Cotton” value (cotton; Rate 200 g/ha, PREEMERGENCE) was 0, the “Plant response rating, Wild buckwheat” value (wild buckwheat; 62 g/ha) was 100 and the “Plant response rating, Wild buckwheat” value (wild buckwheat; 125 g/ha) was 100. The “Plant response rating (0 to 100), Wild buckwheat” value (wild buckwheat; Rate 16 g/ha) was 60, the “Plant response rating (0 to 100), Wild buckwheat” value (wild buckwheat; Rate 31 g/ha) was 70 and the “Plant response rating, Barley” value (barley [1]; POSTEMERGENCE, Rate 50 g/ha) was 3. The “Plant response rating, Barley” value (barley [1]; POSTEMERGENCE, Rate 200 g/ha) was 4, the “Plant response rating, Barley” value (barley [1]; PREEMERGENCE, Rate 50 g/ha) was 0 and the “Plant response rating, Barley” value (barley [1]; Rate 200 g/ha, PREEMERGENCE) was 0. For the same compound, the “Plant response rating (0 to 100), Duck salad” value (duck salad; Rate 16 g/ha) was 0, the “Plant response rating (0 to 100), Duck salad” value (duck salad; Rate 31 g/ha) was 0 and the “Plant response rating Duck salad” value (duck salad; 62 g/ha) was 0. For the same compound, the “Plant response rating Duck salad” value (duck salad; 125 g/ha) was 20, the “Plant response rating, Blackgrass” value (blackgrass [2]; POSTEMERGENCE, Rate 50 g/ha) was 2 and the “Plant response rating, Blackgrass” value (blackgrass [2]; POSTEMERGENCE, Rate 200 g/ha) was 3. For the same compound, the “Plant response rating, Blackgrass” value (blackgrass [2]; PREEMERGENCE, Rate 50 g/ha) was 0, the “Plant response rating, Blackgrass” value (blackgrass [2]; Rate 200 g/ha, PREEMERGENCE) was 0 and the “Plant response rating Pigweed” value (pigweed; 62 g/ha) was 90. The “Plant response rating Pigweed” value (pigweed; 125 g/ha) was 90, the “Plant response rating (0 to 100), Pigweed” value (pigweed; Rate 16 g/ha) was 90 and the “Plant response rating (0 to 100), Pigweed” value (pigweed; Rate 31 g/ha) was 90. For the same compound, the “Plant response rating, Rape” value (rape; POSTEMERGENCE, Rate 50 g/ha) was 9, the “Plant response rating, Rape” value (rape; PREEMERGENCE, Rate 50 g/ha) was 2 and the “Plant response rating, Rape” value (rape; Rate 200 g/ha, POSTEMERGENCE) was 10. The “Plant response rating, Rape” value (rape; Rate 200 g/ha, PREEMERGENCE) was 3, the “Plant response rating, Bedstraw” value (bedstraw [3]; 62 g/ha) was 100 and the “Plant response rating, Bedstraw” value (bedstraw [3]; 125 g/ha) was 100. For the same compound, the “Plant response rating (0 to 100), Bedstraw” value (bedstraw [3]; Rate 16 g/ha) was 80, the “Plant response rating (0 to 100), Bedstraw” value (bedstraw [3]; Rate 31 g/ha) was 90 and the “Plant response rating, Blackgrass” value (blackgrass [4]; 62 g/ha) was 30. The “Plant response rating, Blackgrass” value (blackgrass [4]; 125 g/ha) was 30, the “Plant response rating (0 to 100), Blackgrass” value (blackgrass [4]; Rate 16 g/ha) was 10 and the “Plant response rating (0 to 100), Blackgrass” value (blackgrass [4]; Rate 31 g/ha) was 20. The “Plant response rating, Sorghum” value (sorghum [5]; 62 g/ha) was 60, the “Plant response rating, Sorghum” value (sorghum [5]; 125 g/ha) was 70 and the “Plant response rating (0 to 100), Sorghum” value (sorghum [5]; Rate 16 g/ha) was 40. For the same compound, the “Plant response rating (0 to 100), Sorghum” value (sorghum [5]; Rate 31 g/ha) was 50, the “Plant response rating, Rice” value (rice; POSTEMERGENCE, Rate 50 g/ha) was 4 and the “Plant response rating, Rice” value (rice; PREEMERGENCE, Rate 50 g/ha) was 0. The “Plant response rating, Rice” value (rice; Rate 200 g/ha, POSTEMERGENCE) was 6, the “Plant response rating, Rice” value (rice; Rate 200 g/ha, PREEMERGENCE) was 2 and the “Plant response rating Barley Igri” value (barley [6]; 62 g/ha) was 30. The “Plant response rating Barley Igri” value (barley [6]; 125 g/ha) was 40, the “Plant response rating (0 to 100), Barley Igri” value (barley [6]; Rate 16 g/ha) was 20 and the “Plant response rating (0 to 100), Barley Igri” value (barley [6]; Rate 31 g/ha) was 30. For the same compound, the “Plant response rating, Wheat” value (wheat; POSTEMERGENCE, Rate 50 g/ha) was 2, the “Plant response rating, Wheat” value (wheat; PREEMERGENCE, Rate 50 g/ha) was 0 and the “Plant response rating, Wheat” value (wheat; Rate 200 g/ha, POSTEMERGENCE) was 5. For the same compound, the “Plant response rating, Wheat” value (wheat; Rate 200 g/ha, PREEMERGENCE) was 0, the “Plant response rating, Bedstraw” value (bedstraw [7]; POSTEMERGENCE, Rate 50 g/ha) was 10 and the “Plant response rating, Bedstraw” value (bedstraw [7]; POSTEMERGENCE, Rate 200 g/ha) was 9. For the same compound, the “Plant response rating, Bedstraw” value (bedstraw [7]; PREEMERGENCE, Rate 50 g/ha) was 7, the “Plant response rating, Bedstraw” value (bedstraw [7]; Rate 200 g/ha, PREEMERGENCE) was 9 and the “Plant response rating Ryegrass” value (ryegrass; 62 g/ha) was 30. For the same compound, the “Plant response rating Ryegrass” value (ryegrass; 125 g/ha) was 40, the “Plant response rating (0 to 100), Ryegrass” value (ryegrass; Rate 16 g/ha) was 10 and the “Plant response rating (0 to 100), Ryegrass” value (ryegrass; Rate 31 g/ha) was 20. The “Plant response rating, Sorghum” value (sorghum [8]; POSTEMERGENCE, Rate 50 g/ha) was 4, the “Plant response rating, Sorghum” value (sorghum [8]; PREEMERGENCE, Rate 50 g/ha) was 0 and the “Plant response rating, Sorghum” value (sorghum [8]; Rate 200 g/ha, POSTEMERGENCE) was 5. For the same compound, the “Plant response rating, Sorghum” value (sorghum [8]; Rate 200 g/ha, PREEMERGENCE) was 0, the “Plant response rating, Cheatgrass” value (cheatgrass; POSTEMERGENCE, Rate 50 g/ha) was 1 and the “Plant response rating, Cheatgrass” value (cheatgrass; POSTEMERGENCE, Rate 200 g/ha) was 3. For the same compound, the “Plant response rating, Cheatgrass” value (cheatgrass; PREEMERGENCE, Rate 50 g/ha) was 0, the “Plant response rating, Cheatgrass” value (cheatgrass; Rate 200 g/ha, PREEMERGENCE) was 0 and the “Plant response rating, Sugar beet” value (sugar beet; 62 g/ha) was 100. The “Plant response rating, Sugar beet” value (sugar beet; 125 g/ha) was 100, the “Plant response rating (0 to 100), Sugar beet” value (sugar beet; Rate 16 g/ha) was 100 and the “Plant response rating (0 to 100), Sugar beet” value (sugar beet; Rate 31 g/ha) was 100.
